Measured values taken from patent US20100178658A1, “SCREENING ASSAYS FOR INHIBITORS OF BETA AMYLOID PEPTIDE ION CHANNEL FORMATION” (The Regents of the University of Michigan, priority 2007, published 2010).
Entries after “also recorded” stand apart in the source; their conditions may differ.

Experiments:
[1] = biological target: T1, Aβ fibrils (Homo sapiens, UniProt P05067); settings: cited from earlier work; for Binding and coating of Aβ fibrils (inhibition of IgG-Aβ fibril interactions): ELISA with monoclonal anti-Aβ IgG clone 6E10, Inbar et al.
T1 construct: the Aβ fibrils are grown from synthetic Aβ (1-42) peptides by incubating the peptides (74 μM) in ultrapure water
T1 sequence (P05067 672-713 limits assumed): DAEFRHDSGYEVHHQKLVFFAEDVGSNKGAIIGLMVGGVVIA

[2] = biological target: T2, Aβ peptide (1-42) ion channels (Homo sapiens, UniProt P05067); test: Electrophysiological planar lipid bilayer assay for Aβ peptide ion channel activity (bilayer chambers, voltage clamp); assay type: biochemical; settings: for Inhibition of Aβ pores / ion channel activity of Aβ: electrophysiological screening assay of FIGS. 3-5; for Inhibition of Aβ peptide ion channel formation (pore forming activity): 37 μM Aβ peptide, test compound in molar ratio 1:1, added at the same time as Aβ peptide, planar lipid bilayer; for Disruption of preformed Aβ ion channels: added after current activity was observed
T2 construct: purchased Innovagen, Lund, SE or Bachem Bioscience Inc., King of Prussia, Pa., USA
T2 sequence (P05067 672-713 limits assumed): as above
Description: Ion channel measurements. Screening assays can be performed using single channel recordings in “voltage clamp mode” using Ag/AgCl electrodes (Warner Instruments) in each compartment of the bilayer chambers. Data acquisition and storage can be carried out using custom software in combination with either an EPC-7 patch clamp amplifier from List Medical Electronic (set at a gain of 10 mV pA-1 and a filter cutoff frequency of 3 kHz) or a Geneclamp 500 amplifier from Axon Instruments (with a CV-5B 100GU headstage, set at a gain of 100 mV pA-1 and filter cutoff frequency of 1 kHz). In some embodiments, patch clamp amplifiers, for example, the EPC-7 amplifier can be used for most folded bilayers and the Geneclamp 500 amplifier for most painted bilayers. The data acquisition boards for both amplifiers were set to a sampling frequency of 15 kHz. Current traces can be further filtered using a digital Gaussian low-pass filter with a cutoff frequency of 30 Hz. In some embodiments, the current traces used to generate data that can be recorded at applied potentials 50 mV and filtered at 10 Hz.
Analysis of the single channel current traces can be made by computing histograms of the currents from the original current-time traces with ClampFit 9.2 software from Axon Instruments. From these histograms, the main current values can be extracted by fitting a Gaussian function to the peaks in the histograms. Single channel conductances can refer to the main conductance state (i.e. to the dominant peaks in the current histograms).
The lipid mixture can be made from POPE:POPG (Avanti Polar Lipids) at 25 mg/ml (1:1) in Heptane. The pretreatment lipid solution can be POPE:POPG 20 mg/mL in Hexane. 2. The bilayer is formed in classic bilayer cups and chamber (Warner Instruments). This 2-part system consists of a black Delrin chamber and a cup of Delrin. Cups and chambers are designed such that addition of equal volumes to the cup and chamber (cis and trans sides) results in a balanced solution height, minimizing any pressure gradients across the bilayer membrane.
The bilayer was formed over a 250-μm hole in a partition separating two Delrin compartments, the so called “painting technique.” First, droplets of pretreated lipid solution were placed on both sides of the hole, using 100 μL-Hamilton syringe. Once the droplet of hexane evaporates, both chambers (cis and trans) were symmetrically filled with 900 μL of buffer solution, 100 mM KH2PO4/K2HPO4 pH 7.4, at room temperature.
When the bilayer set-up was already in place with Ag/AgCl electrodes in Faraday cage (a bilayer workstation which provides critical shielding of electromagnetic interference from outside sources and isolate vibration) the lipid solution (POPE:POPG in Heptane) can be painted directly over the hole by using a thin paintbrush. Blowing air underneath the hole using a Pasteur pipette to thin out the bilayer can be used until the appropriate capacitance (80-120 pF) is achieved. A voltage of ±100 mV was applied for at least 10 minutes to test stability of lipid bilayer.
Aβ(1-42) (commercially available from Innovagen, Lund, SE or Bachem Bioscience Inc., King of Prussia, Pa., USA) is initially dissolved in deionized water at 1 mg/ml (221.5 μM) and stored at −20° C. The stock solution can be aliquotted to sufficient amount for each time use (90 μL). After the stable bilayer is constituted, the Aβ(1-42) solution can be added to the trans side of the chamber to obtain a final concentration of 37 μM. The solution is mixed well in the chamber under stirring for 5 minutes.
Congo Red (Sigma) is dissolved in de-ionized (DI) water to achieve a concentration of 2.5 mg/ml (3.58 mM as a stock solution). (−)Nicotine hemisulfate (Sigma, St. Louis, Mo., USA) was diluted to 1.89 mM in DI water. Tannic acid (Riedel-de Haën, Seelze, Germany) is diluted to 20 mM in DI water.

## O=S(=O)([O-])c1ccc(O)c2ccccc12.[Na+] [1-naphthol-4-sulfonate]
[1]
  Binding and coating of Aβ fibrils (inhibition of IgG-Aβ fibril interactions): do not interact with Aβ fibrils

## Nc1c(/N=N/c2ccc(-c3ccc(/N=N/c4cc(S(=O)(=O)O)c5ccccc5c4N)cc3)cc2)cc(S(=O)(=O)O)c2ccccc12 [Congo Red]
[1]
  Binding to aggregated Aβ fibrils: bind strongly
[2]
  Inhibition of Aβ pores / ion channel activity of Aβ: inhibit Aβ pores

## O=C(OC[C@H]1O[C@@H](OC(=O)c2cc(O)c(O)c(OC(=O)c3cc(O)c(O)c(O)c3)c2)[C@H](OC(=O)c2cc(O)c(O)c(OC(=O)c3cc(O)c(O)c(O)c3)c2)[C@@H](OC(=O)c2cc(O)c(O)c(OC(=O)c3cc(O)c(O)c(O)c3)c2)[C@@H]1OC(=O)c1cc(O)c(O)c(OC(=O)c2cc(O)c(O)c(O)c2)c1)c1cc(O)c(O)c(OC(=O)c2cc(O)c(O)c(O)c2)c1 [Tannic acid]
[1]
  Binding to aggregated Aβ fibrils: bind strongly
[2]
  Inhibition of Aβ peptide ion channel formation (pore forming activity): Inhibition of Aβ ion channel formation
  Inhibition of Aβ pores / ion channel activity of Aβ: inhibit ion channel activity of Aβ
[2]; listed as tannic acid
  Inhibition of Aβ pores / ion channel activity of Aβ: inhibit Aβ pores

## Cc1ccc2c(c1)sc(-c1ccc(N(C)C)cc1)[n+]2C.[Cl-] [ThT, Thioflavin T]
[1]
  Binding and coating of Aβ fibrils (inhibition of IgG-Aβ fibril interactions): bind and coat Aβ fibrils

## NCCc1ccc(O)c(O)c1 [dopamine]
[2]
  Inhibition of Aβ pores / ion channel activity of Aβ: inhibit Aβ pores

## CN1CCC[C@H]1c1cccnc1 [nicotine, (−)Nicotine hemisulfate]
[2]
  Inhibition of Aβ peptide ion channel formation (pore forming activity): eliminated ion channel pore forming activity
  Inhibition of Aβ pores / ion channel activity of Aβ: inhibit Aβ pores
[2]; comparison of preformed and de novo formed Aβ ion channels
  Amount of nicotine needed: disruption of preformed channels versus inhibition of de novo formed channels: required more nicotine than the inhibition de novo formed ion channels
[2]; nicotine added after observing Aβ current activity, 1:1, 1:2, 1:3 and 1:4 molar ratio
  Concentration dependence of disruption of Aβ peptide ion channel activity: concentration-dependent disruption of Aβ peptide ion channel activity
[2]; nicotine at 2-fold molar excess with respect to Aβ peptide (1-42)
  Disruption of preformed Aβ ion channels: disrupted preformed ion channels
[2]; nicotine at 4-fold molar excess (4:1) with respect to Aβ peptide (1-42)
  Disruption of preformed Aβ ion channels: disrupted preformed ion channels almost completely; also recorded: disrupted preformed Aβ peptide ion channel activity almost completely
[2]; nicotine at 4-fold molar excess with respect to Aβ peptide (1-42)
  Time to almost complete disruption of preformed ion channels: ≤ 10 min

## Diaminoacridine [DAA]
[1]
  Binding and coating of Aβ fibrils (inhibition of IgG-Aβ fibril interactions): bind and coat Aβ fibrils
